The term IC50 denotes the point on the concentration scale where inhibition reaches its midpoint.

Structures are written as SMILES. Like-named read-outs stand apart in the source and are kept apart here.

For one assay, the target named is KRAS-WT (Homo sapiens, UniProt P01116). Put plainly: SOS-catalyzed nucleotide exchange assay (Procedure A, TR-FRET), KRAS-WT. Type of assay: biochemical. As to conditions: nucleotide exchange, read-out: KRAS WT GNE IC50. The method in brief:
(§1)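 Compounds (10-point, 3-fold) were preincubated 60 min at room temperature with a biotinylated RAS/Bodipy-GDP/Tb-streptavidin TR-FRET complex. Exchange was started with human SOS plus 3 mM GTP. RAS/SOS: G12C 3/40 nM, WT 1/40 nM, NRAS 1.25/40 nM (60 min); G12V 1.25/160 nM (90 min). The 520/495 ratio was fit four-parameter.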
(TR-FRET usually uses a lanthanide donor and a delayed reading to cut background.)

The next assay addresses KRAS-G12D (Homo sapiens, UniProt P01116, G12D). Nature of the assay: SOS-catalyzed nucleotide exchange assay (Procedure A, TR-FRET), KRAS-G12D. The class given is biochemical. As to conditions: nucleotide exchange, read-out: KRAS G12D GNE IC50. The method in brief: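 Signal ratio (520/495 nm, excitation 340 nm) reports Bodipy-GDP retention on biotinylated RAS after SOS-catalyzed exchange with 3 mM GTP. SOS was 40 nM, except 160 nM for G12V. Room-temperature exchange lasted 60 min (90 min for G12V), following a 60 min compound preincubation.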

In another assay the target is KRAS-G12V (Homo sapiens, UniProt P01116, G12V). Nature of the assay: SOS-catalyzed nucleotide exchange assay (Procedure A, TR-FRET), KRAS-G12V. Type of assay: biochemical. As to conditions: nucleotide exchange, read-out: KRAS G12V GNE IC50. Put shortly:
as §1

A further assay deals with MKN-1 cells. Nature of the assay: Cellular phospho-ERK assay, MKN-1 cells (amplified wild-type KRAS). Type of assay: cell-based. As to conditions: Homo sapiens, read-out: MKN1 pERK IC50. Put shortly: (§2)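 ERK phosphorylation relative to total ERK is the endpoint, detected by AlphaScreen-based SureFire multiplex following a 2-hour treatment at 37 °C. Compounds are titrated 1:3 over ten points from 30 μM.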

The subject of another assay is AsPC-1 cells. Put plainly: Cellular phospho-ERK assay, AsPC-1 cells (homozygous KRAS-G12D). Type of assay: cell-based. As to conditions: Homo sapiens, ASPC1, 2 h, read-out: AsPC1 pERK IC50. The method in brief:
as §2

In the next assay the test system is SW620 cells. Nature of the assay: Cellular phospho-ERK assay, SW620 cells (homozygous KRAS-G12V). As to conditions: Homo sapiens, read-out: SW620 pERK IC50. The class given is cell-based. Put shortly:
as §2

[1] abbreviates: amplified wild-type KRAS, 2 hours.
Setting [2] is: SW-620, 2 hours compound incubation.

Chain of KRAS-G12D (P01116 with tags, fused parts or gaps isoform P01116-2 G12D): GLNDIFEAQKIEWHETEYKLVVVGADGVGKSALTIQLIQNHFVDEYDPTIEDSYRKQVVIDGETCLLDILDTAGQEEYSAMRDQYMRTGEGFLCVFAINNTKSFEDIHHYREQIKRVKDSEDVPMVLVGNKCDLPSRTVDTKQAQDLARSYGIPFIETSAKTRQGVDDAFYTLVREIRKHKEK
Chain of KRAS-WT (P01116 with tags, fused parts or gaps isoform P01116-2): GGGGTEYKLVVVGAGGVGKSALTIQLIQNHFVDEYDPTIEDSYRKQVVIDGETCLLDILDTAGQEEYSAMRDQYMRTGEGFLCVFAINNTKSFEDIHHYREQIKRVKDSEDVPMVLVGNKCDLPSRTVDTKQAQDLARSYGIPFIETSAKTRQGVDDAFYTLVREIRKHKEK
Chain of KRAS-G12V (P01116 with tags, fused parts or gaps isoform P01116-2 G12V): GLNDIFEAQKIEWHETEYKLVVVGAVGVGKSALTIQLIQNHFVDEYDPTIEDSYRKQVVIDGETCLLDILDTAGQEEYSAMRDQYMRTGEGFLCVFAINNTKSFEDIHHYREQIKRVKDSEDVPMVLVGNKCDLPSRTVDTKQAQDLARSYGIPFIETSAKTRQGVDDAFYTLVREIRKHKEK

Regarding `C[C@@]1(O)COCCN(c2nc(OC[C@@]34CCCN3C[C@H](F)C4)nc3sc4c(-c5c6c(cc7[nH]ncc57)CC5CC65)nccc4c23)C1` (stereo partly drawn) [Ex-90, (6S)-4-(2-(((2R,7aS)-2-fluorotetrahydro-1H-pyrrolizin-7a(5H)-yl)methoxy)-8-(4b,5,5a,6-tetrahydro-1H-cyclopropa[4,5]cyclopen-ta[1,2-f]indazol-4-yl)pyrido[4′,3′:4,5]thieno [2,3-d]pyrimidin-4-yl)-6-methyl-1,4-oxazepan-6-ol], the IC50 on KRAS-WT came to 0.152 µM; at KRAS-G12D it was 0.0488 µM; on KRAS-G12V, 0.085 µM; with MKN-1 cells (setting [1]), 0.174 µM; in the assay on AsPC-1 cells (KRAS-G12D, 2 hours) it was 0.311 µM; in the assay with SW620 cells (SW-620, KRAS-G12V, 2 hours), 0.193 µM.
On to `CCc1cc2[nH]ncc2c(-c2nccc3c2sc2nc(OC[C@@]45CCCN4C[C@H](F)C5)nc(N4CCOC[C@@](C)(O)C4)c23)c1C1CC1` [Ex-48, (6S)-4-(8-(5-cyclopropyl-6-ethyl-1H-indazol-4-yl)-2-(((2R,7aS)-2-fluorotetrahydro-1H-pyrrolizin-7a(5H)-yl)methoxy)pyrido[4′,3′:4,5]thi-eno[2,3-d]pyrimidin-4-yl)-6-methyl-1,4-oxazepan-6-ol], for which the IC50 stood at 0.0504 µM at KRAS-WT; 0.0182 µM on KRAS-G12D; 0.0285 µM on KRAS-G12V; 0.123 µM with MKN-1 cells (setting [1]); 0.153 µM in the assay with AsPC-1 cells (KRAS-G12D, 2 hours); 0.105 µM in the assay on SW620 cells (SW-620, KRAS-G12V, 2 hours).
As for `C[C@@]1(O)COCCN(c2nc(OC[C@@]34CCCN3C[C@H](F)C4)nc3sc4c(-c5c(C6(F)CC6)c(C(F)(F)F)cc6[nH]ncc56)nncc4c23)C1` [Ex-283, (6S)-4-(8-(5-(1-fluorocyclopropyl)-6-(trifluoromethyl)-1H-indazol-4-yl)-2-(((2R,7aS)-2-fluorotetrahydro-1H-pyrrolizin-7a(5H)-yl)methoxy)pyrimido [5′,4′:4,5]thieno[2,3-d]pyridazin-4-yl)-6-methyl-1,4-oxazepan-6-ol], the IC50 on KRAS-WT was 0.0145 µM; at KRAS-G12D it was 0.00526 µM; at KRAS-G12V, 0.0154 µM; in the assay on MKN-1 cells (setting [1]) it was 0.0774 µM; in the assay on AsPC-1 cells (KRAS-G12D, 2 hours) it was 0.244 µM; in the assay with SW620 cells (SW-620, KRAS-G12V, 2 hours), 0.0415 µM.
With `CC1(F)CCN(C[C@@]2(COc3nc(N4CCOC[C@@](C)(O)C4)c4c(n3)sc3c(-c5c(C6(F)CC6)c(Cl)cc6[nH]ncc56)nccc34)CC2(F)F)CC1` [Ex-232, (6S)-4-(8-(6-chloro-5-(1-fluorocyclopropyl)-1H-indazol-4-yl)-2-(((R)-2,2-difluoro-1-((4-fluoro-4-methylpiperidin-1-yl)methyl)cyclopropyl)metho-xy)pyrido[4′,3′:4,5]thieno[2,3-d]pyrimidin-4-yl)-6-methyl-1,4-oxazepan-6-ol], the IC50 at KRAS-WT was 0.762 µM; at KRAS-G12D, 0.104 µM; on KRAS-G12V, 0.197 µM; in the assay with MKN-1 cells (2 hours compound incubation), 0.0842 µM; in the assay with AsPC-1 cells (2 hours compound incubation), 0.188 µM; in the assay on SW620 cells (setting [2]), 0.117 µM.
Take `Cc1cc2[nH]ncc2c(-c2nccc3c2sc2nc(OC[C@@]45CCCN4C[C@H](F)C5)nc(N4CCOC[C@]5(CCO5)C4)c23)c1C(F)(F)F` [Ex-198, (4S)-9-(2-(((2R,7aS)-2-fluorotetrahydro-1H-pyr-rolizin-7a(5H)-yl)meth-oxy)-8-(6-methyl-5-(tri-fluoromethyl)-1H-indazol-4-yl)pyrido[4′,3′:4,5]thieno[2,3-d]pyrimidin-4-yl)-1,6-dioxa-9-azaspiro [3.6]decane]: the concentration for half-maximal inhibition (IC50) on KRAS-WT turned out to be 0.132 µM; on KRAS-G12D, 0.036 µM; at KRAS-G12V, 0.0335 µM; in the assay on MKN-1 cells (2 hours compound incubation) it was 0.12 µM; in the assay on AsPC-1 cells (2 hours compound incubation), 0.14 µM; with SW620 cells (setting [2]), 0.0743 µM.
With `C/C=C/c1c(C)cc2[nH]ncc2c1-c1nccc2c1sc1nc(OC[C@@]34CCCN3C[C@H](F)C4)nc(N3CCOC[C@@](C)(O)C3)c12` [Ex-64, (6S)-4-(2-(((2R,7aS)-2-fluorotetrahydro-1H-pyrrolizin-7a(5H)-yl)methoxy)-8-(6-methyl-5-((E)-prop-1-en-1-yl)-1H-indazol-4-yl)pyrido[4′,3′:4,5]thieno [2,3-d]pyrimidin-4-yl)-6-methyl-1,4-oxazepan-6-ol], the IC50 at KRAS-WT is 0.25 µM; at KRAS-G12D, 0.0991 µM; at KRAS-G12V it was 0.163 µM; in the assay with MKN-1 cells (setting [1]), 0.389 µM; with AsPC-1 cells (KRAS-G12D, 2 hours) it was 0.486 µM; with SW620 cells (SW-620, KRAS-G12V, 2 hours), 0.294 µM.
With `C[C@@]1(O)COCCN(c2nc(OC[C@]3(CN4CC5(CCOCC5)C4)CC3(F)F)nc3sc4c(-c5c(C6(F)CC6)c(Cl)cc6[nH]ncc56)nccc4c23)C1` [Ex-248, (6S)-4-(2-(((R)-1-((7-oxa-2-azaspiro[3.5]nonan-2-yl)methyl)-2,2-difluorocyclopropyl)methoxy)-8-(6-chloro-5-(1-fluorocyclopropyl)-1H-indazol-4-yl)pyrido[4′,3′:4,5]thieno[2,3-d]pyrimidin-4-y1)-6-methyl-1,4-oxazepan-6-ol], the IC50 at KRAS-WT was found to be 0.0125 µM; at KRAS-G12D it was 0.00309 µM; on KRAS-G12V it was 0.0155 µM; with MKN-1 cells (2 hours compound incubation) it was 0.0363 µM; in the assay on AsPC-1 cells (2 hours compound incubation), 0.0457 µM; with SW620 cells (setting [2]) it was 0.0428 µM.
For `Cn1c2nc(OC[C@@]34CCCN3C[C@H](F)C4)nc(N3CCOC[C@@](C)(O)C3)c2c2ccnc(-c3c(C4(F)CC4)c(Cl)cc4[nH]ncc34)c21` (single isomer, unassigned) [Ex-3], the IC50 was 0.0172 µM at KRAS-WT; 0.0105 µM at KRAS-G12D; 0.0153 µM at KRAS-G12V; 0.134 µM with MKN-1 cells (setting [1]); 0.207 µM with AsPC-1 cells (KRAS-G12D, 2 hours); 0.0955 µM with SW620 cells (SW-620, KRAS-G12V, 2 hours).
Consider `C[C@@]1(O)COCCN(c2nc(OC[C@@]34CCCN3C[C@]3(CC3(F)F)C4)nc3sc4c(-c5c(C6CC6)c(Cl)cc6[nH]ncc56)nccc4c23)C1` [Ex-212, (6S)-4-(8-(6-chloro-5-cyclopropyl-1H-indazol-4-yl)-2-(((1R,7a'S)-2,2-difluorodihydro-1′H,3′H-spiro[cyclo-propane-1,2′-pyrrol-izin]-7a′(5′H)-yl)-methoxy)pyrido [4′,3′:4,5]thieno[2,3-d]pyrimidin-4-yl)-6-methyl-1,4-oxaze-pan-6-ol], for which the concentration for half-maximal inhibition (IC50) at KRAS-WT is 0.0178 µM; on KRAS-G12D, 0.00475 µM; at KRAS-G12V, 0.0398 µM; in the assay on MKN-1 cells (2 hours compound incubation), 0.0898 µM; with AsPC-1 cells (2 hours compound incubation) it was 0.0673 µM; with SW620 cells (setting [2]), 0.0561 µM.
With `CCC1c2c(cc3[nH]ncc3c2-c2nccc3c2sc2nc(OC[C@@]45CCCN4C[C@H](F)C5)nc(N4CCOC[C@@](C)(O)C4)c23)CC1(F)F` (single isomer, unassigned) [Ex-108], the IC50 was 0.00309 µM on KRAS-WT; 0.00152 µM at KRAS-G12D; 0.00541 µM on KRAS-G12V; 0.0289 µM in the assay on MKN-1 cells (setting [1]); 0.05 µM with AsPC-1 cells (KRAS-G12D, 2 hours); 0.0209 µM in the assay with SW620 cells (SW-620, KRAS-G12V, 2 hours).
Turning to `CN(C)C1COC2C[C@@]21COc1nc(N2CCOC[C@@](C)(O)C2)c2c(n1)sc1c(-c3c(C4(F)CC4)c(Cl)cc4[nH]ncc34)nccc12` (stereo partly drawn) [Ex-269, (6S)-4-(8-(6-chloro-5-(1-fluorocyclopropyl)-1H-indazol-4-yl)-2-((4-(dimethylamino)-2-oxabicyclo[3.1.0]hexan-5-yl)methoxy)pyri-do[4′,3′:4,5]thi-eno[2,3-d]pyrimidin-4-yl)-6-methyl-1,4-oxazepan-6-ol], the IC50 on KRAS-WT was determined as 0.0249 µM; at KRAS-G12D, 0.00813 µM; at KRAS-G12V, 0.02 µM; in the assay with MKN-1 cells (2 hours compound incubation), 0.0901 µM; in the assay on AsPC-1 cells (2 hours compound incubation) it was 0.182 µM; with SW620 cells (setting [2]), 0.0845 µM.
For the molecule `Cc1cc2[nH]ncc2c(-c2nccc3c2sc2nc(OC[C@@]45CCCN4C[C@H](F)C5)nc(N4CCOCC5(CCCO5)C4)c23)c1C(F)(F)F` (stereo partly drawn) [Ex-197, 10-(2-(((2R,7aS)-2-fluoro-tetrahydro-1H-pyrrolizin-7a(5H)-yl)methoxy)-8-(6-methyl-5-(trifluorometh-yl)-1H-indazol-4-yl)pyrido [4′,3′:4,5]thieno[2,3-d]pyrimidin-4-yl)-1,7-dioxa-10-azaspiro[4.6]undecane], the IC50 on KRAS-WT is 0.432 µM; on KRAS-G12D it was 0.2 µM; on KRAS-G12V it was 0.186 µM; in the assay with MKN-1 cells (2 hours compound incubation) it was 0.513 µM; in the assay with AsPC-1 cells (2 hours compound incubation), 0.393 µM; in the assay on SW620 cells (setting [2]), 0.459 µM.
